Patent EP0324328B1, “Use of the N-n-butyl derivative of desoxynojirimycin in the manufacture of a medicament inhibiting HIV-Virus” (priority 1987, dated 1989)

Tested on: HIV-1
Assay: Time to develop CPE after transfer of HIV-1 infected cells to drug-free medium
Type: cell-based
Protocol: FIG. 2 is a schematic outline of the test procedure used to determine the relative proportion of HIV-infected cells in cultures containing 0.1 mg/ml of the inhibitory test compound. At various times aliquots of the infected cell suspensions were transferred to inhibitor-free medium and the time taken for the cells to develop cytopathic effect (CPE) was recorded.
After 55 days of culture (O) in the presence of drug no virus appeared during 100 additional days of culture in the absence of drug (after removal of drug).
To determine if there was a gradual reduction of HIV-infected cells in cultures maintained with BuDNJ, aliquots of cells infected with 10^4 TCID of HIV-1 and grown in the presence of 0.1 mg/ml BuDNJ for varying lengths of time were transferred to separate wells and grown in drug-free medium as indicated in […]. The cultures were then monitored for development of CPE, indicative of active HIV replication. The times for the appearance of an advanced CPE were recorded. […]
In order to determine whether or not there was an actual reduction in HIV-infected cells in the presence of BuDNJ, aliquots of the infected cell suspension, grown for varying times in the presence or drug, where transferred to drug-free medium as outlined in Figure 2. The cultures were then monitored for the development of CPE and giant cell formation (indicative of active HIV replication). […]

`CCCCN1C[C@H](O)[C@@H](O)[C@H](O)[C@H]1CO` [BuDNJ, N-n-butyl-deoxynojirimycin] was tested, and the “days before CPE expression” value (0.1 mg/ml drug for 55 days of culture, then culture in the absence of drug) was > 100 days and the “proportion of infected cells in the cultures” value (prolonged exposure, 0.1 mg/ml, result in words) was “reduced the proportion of infected cells in the cultures”.
